≈ marks a conversion by molar mass, not a printed value.

From ChEMBL document CHEMBL1150086, “New steroid acids from Antrodia cinnamomea, a fungal parasite of Cinnamomum micranthum” (J Nat Prod, 1995) come the findings set out here.

In this assay the test system is P388. Briefly: Cytotoxicity against mouse P388 cells after 72 hrs. In kind it is functional, cell-based. The conditions noted are these: P388, 72 h.
By IC50 is commonly meant the concentration needed to halve the response being measured. Read a high IC50 as lower potency. `CO[C@H](C(=O)[C@@H](O)[C@@H](C)O)[C@@H]1Cc2cc3cc(O[C@H]4C[C@@H](O[C@@H]5C[C@@H](O)[C@H](O)[C@@H](C)O5)[C@H](O)[C@@H](C)O4)c(C)c(O)c3c(O)c2C(=O)[C@H]1O[C@H]1C[C@@H](O[C@@H]2C[C@@H](O)[C@@H](O[C@@H]3C[C@](C)(O)[C@H](O)[C@@H](C)O3)[C@@H](C)O2)[C@H](O)[C@@H](C)O1` [PLICAMYCIN] came in with a 50% inhibitory concentration (IC50) of 0.06 µg/mL (≈ 0.0553 µM).
`C=C(CC[C@@H](C)[C@H]1CC[C@H]2C3=C(C(=O)[C@H](O)[C@]12C)[C@@]1(C)CC[C@@H](O)[C@@H](C)[C@@H]1CC3=O)C(C)C(=O)O` (stereo partly drawn) [ZHANKUIC ACID C] had an IC50 of 5.4 µg/mL (≈ 11.1 µM).
For `C=C(CC[C@@H](C)[C@H]1CC[C@H]2C3=C(C(=O)C[C@]12C)[C@@]1(C)CCC(=O)[C@@H](C)[C@@H]1CC3=O)C(C)C(=O)O` (stereo partly drawn) [ZHANKUIC ACID A] the value was 1.8 µg/mL (≈ 3.84 µM).
